Results: ChEMBL document CHEMBL6103639, “Structure-Based Development of 3,4-Fused Tricyclic Benzofuran Derivatives as Polyketide Synthase 13 Inhibitors with Negligible hERG Inhibition” (J Med Chem, 2025)

What was measured:
[1] = system: Mycobacterium tuberculosis; test: Antitubercular activity against Mycobacterium tuberculosis H37Rv assessed as reduction in microbial growth by microplate alamar blue assay; assay type: functional
[2] = Metabolic stability in human liver microsomes assessed as intrinsic clearance at 0.1 uM measured upto 60 mins by LC/MS-MS analysis; assay type: ADME, Microsome; conditions: read-out: CLH
[3] = target: Voltage-gated inwardly rectifying potassium channel KCNH2 (Homo sapiens, UniProt Q12809); test: Inhibition of human ERG expressed in CHO cells incubated for 2.5 mins by Q-patch-clamp electrophysiological analysis; assay type: toxicity, cell-based
Voltage-gated inwardly rectifying potassium channel KCNH2, sequence (Q12809 whole entry): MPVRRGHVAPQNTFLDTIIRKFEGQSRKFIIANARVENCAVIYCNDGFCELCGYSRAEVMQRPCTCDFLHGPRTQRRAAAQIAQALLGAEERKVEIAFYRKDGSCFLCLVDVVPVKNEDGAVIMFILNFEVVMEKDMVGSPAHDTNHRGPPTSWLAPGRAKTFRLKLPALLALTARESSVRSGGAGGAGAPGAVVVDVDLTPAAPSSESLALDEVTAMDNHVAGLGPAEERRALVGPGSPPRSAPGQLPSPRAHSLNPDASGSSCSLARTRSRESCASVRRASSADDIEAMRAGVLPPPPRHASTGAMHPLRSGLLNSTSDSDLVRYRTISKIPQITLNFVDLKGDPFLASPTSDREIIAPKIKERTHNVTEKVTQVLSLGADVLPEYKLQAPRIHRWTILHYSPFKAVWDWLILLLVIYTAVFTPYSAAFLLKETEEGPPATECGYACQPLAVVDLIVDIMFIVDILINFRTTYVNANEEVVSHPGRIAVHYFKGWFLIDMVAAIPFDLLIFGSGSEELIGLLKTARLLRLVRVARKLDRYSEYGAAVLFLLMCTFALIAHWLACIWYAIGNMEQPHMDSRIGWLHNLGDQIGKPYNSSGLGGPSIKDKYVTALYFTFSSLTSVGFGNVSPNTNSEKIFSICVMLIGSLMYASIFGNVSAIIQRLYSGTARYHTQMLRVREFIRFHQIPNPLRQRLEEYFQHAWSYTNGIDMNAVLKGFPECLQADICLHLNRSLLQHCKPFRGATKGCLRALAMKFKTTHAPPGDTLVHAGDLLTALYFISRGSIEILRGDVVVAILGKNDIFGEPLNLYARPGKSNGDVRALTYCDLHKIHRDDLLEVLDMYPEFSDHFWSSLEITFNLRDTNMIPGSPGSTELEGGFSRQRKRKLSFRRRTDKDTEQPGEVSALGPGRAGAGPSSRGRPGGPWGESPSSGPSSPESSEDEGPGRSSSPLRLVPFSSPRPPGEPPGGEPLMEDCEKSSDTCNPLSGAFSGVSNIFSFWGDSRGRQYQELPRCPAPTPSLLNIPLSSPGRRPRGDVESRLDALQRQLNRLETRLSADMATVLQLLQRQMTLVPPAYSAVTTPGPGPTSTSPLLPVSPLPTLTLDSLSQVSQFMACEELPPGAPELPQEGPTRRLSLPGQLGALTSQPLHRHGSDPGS

[4] = Metabolic stability in human liver microsomes assessed as half life at 0.1 uM measured upto 60 mins by LC/MS-MS analysis; assay type: ADME, Microsome
[5] = Metabolic stability in human liver microsomes assessed as parent compound remaining at 0.1 uM incubated for 60 mins by LC/MS-MS analysis; assay type: ADME, Microsome; conditions: read-out: Stability
[6] = target: Polyketide synthase Pks13 (Mycobacterium tuberculosis (strain ATCC 25618 / H37Rv), UniProt I6X8D2); test: Inhibition of Mycobacterium tuberculosis H37Rv Pks-13 TE domain using 4-MUH as fluorogenic substrate incubated for 90 mins by fluorescence based analysis
Polyketide synthase Pks13, sequence (I6X8D2 whole entry, the tested form may be a part): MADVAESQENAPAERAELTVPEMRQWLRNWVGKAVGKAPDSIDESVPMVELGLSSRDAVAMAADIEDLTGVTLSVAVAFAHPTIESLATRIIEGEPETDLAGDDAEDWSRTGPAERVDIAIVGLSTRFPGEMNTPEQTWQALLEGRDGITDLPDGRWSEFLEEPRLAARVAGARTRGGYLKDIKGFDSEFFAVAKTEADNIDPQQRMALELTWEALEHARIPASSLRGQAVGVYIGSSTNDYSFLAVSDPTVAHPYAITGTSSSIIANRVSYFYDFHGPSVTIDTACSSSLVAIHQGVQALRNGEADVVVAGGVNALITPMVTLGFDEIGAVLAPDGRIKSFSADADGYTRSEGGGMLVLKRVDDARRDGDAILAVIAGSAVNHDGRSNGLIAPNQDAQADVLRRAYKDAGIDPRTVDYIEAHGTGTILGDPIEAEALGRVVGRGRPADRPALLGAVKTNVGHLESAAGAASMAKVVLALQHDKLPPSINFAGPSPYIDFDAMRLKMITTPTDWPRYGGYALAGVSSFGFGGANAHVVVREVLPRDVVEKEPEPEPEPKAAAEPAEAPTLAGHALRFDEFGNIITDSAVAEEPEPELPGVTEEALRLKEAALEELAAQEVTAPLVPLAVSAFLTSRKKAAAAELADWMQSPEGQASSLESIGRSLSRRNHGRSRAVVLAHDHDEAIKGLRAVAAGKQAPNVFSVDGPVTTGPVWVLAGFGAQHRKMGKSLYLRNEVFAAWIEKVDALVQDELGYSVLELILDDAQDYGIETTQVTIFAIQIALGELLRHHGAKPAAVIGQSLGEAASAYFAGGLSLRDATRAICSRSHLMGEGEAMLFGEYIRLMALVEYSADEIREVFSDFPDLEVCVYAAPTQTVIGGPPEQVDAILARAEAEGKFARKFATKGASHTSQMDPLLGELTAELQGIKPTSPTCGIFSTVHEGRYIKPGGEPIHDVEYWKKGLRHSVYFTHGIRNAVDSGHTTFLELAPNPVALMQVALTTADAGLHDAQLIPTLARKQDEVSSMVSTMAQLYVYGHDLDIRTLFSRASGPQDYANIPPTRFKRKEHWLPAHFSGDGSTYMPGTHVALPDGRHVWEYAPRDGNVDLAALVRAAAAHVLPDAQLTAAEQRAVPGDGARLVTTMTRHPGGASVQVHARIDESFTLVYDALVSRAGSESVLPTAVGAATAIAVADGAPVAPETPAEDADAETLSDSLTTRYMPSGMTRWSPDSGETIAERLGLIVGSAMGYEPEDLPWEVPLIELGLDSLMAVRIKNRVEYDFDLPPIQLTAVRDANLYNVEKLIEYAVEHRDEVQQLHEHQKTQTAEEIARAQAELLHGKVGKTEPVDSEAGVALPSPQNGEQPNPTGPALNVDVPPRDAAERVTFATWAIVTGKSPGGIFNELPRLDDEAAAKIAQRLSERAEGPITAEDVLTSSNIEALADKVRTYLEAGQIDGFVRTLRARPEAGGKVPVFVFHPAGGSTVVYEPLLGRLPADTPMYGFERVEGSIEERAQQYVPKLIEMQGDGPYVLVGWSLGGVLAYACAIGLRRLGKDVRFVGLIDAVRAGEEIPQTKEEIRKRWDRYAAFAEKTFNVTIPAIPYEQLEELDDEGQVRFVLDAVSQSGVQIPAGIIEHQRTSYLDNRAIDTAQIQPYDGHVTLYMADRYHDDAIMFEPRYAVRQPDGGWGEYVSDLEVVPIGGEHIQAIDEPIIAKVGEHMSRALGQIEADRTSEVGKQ

[7] = target: Polyketide synthase Pks13 (Mycobacterium tuberculosis (strain ATCC 25618 / H37Rv)) (UniProt I6X8D2); test: Induction of stabilization of Mycobacterium tuberculosis H37Rv Pks-13 TE domain assessed as melting temperature incubated for 30 mins by NanoDSF assay
Polyketide synthase Pks13 (Mycobacterium tuberculosis (strain ATCC 25618 / H37Rv)), sequence (I6X8D2 whole entry, the tested form may be a part): as above

[8] = target: Polyketide synthase Pks13 (Mycobacterium tuberculosis (strain ATCC 25618 / H37Rv)) (UniProt I6X8D2); test: Induction of stabilization of Mycobacterium tuberculosis H37Rv Pks-13 TE domain assessed as change in melting temperature incubated for 30 mins by NanoDSF assay
[9] = system: Mycobacterium tuberculosis; test: Antitubercular activity against Mycobacterium tuberculosis H37Rv assessed as reduction in microbial growth incubated for 6 days by microplate alamar blue assay; assay type: functional; conditions: 144 h, time 6 day

Structure (SMILES) | MIC [1] | also measured
COc1ccc(-c2oc3ccc(OC)c4c3c2C(=O)N(C)CN(CC2CCC2)C4)cc1 | 64 µg/mL | 
CN1CN(C2CCC2)Cc2c(O)ccc3c2c(cn3-c2ccc(Br)cc2)C1=O | 8 µg/mL | 
CC1c2c(O)ccc3c2c(cn3-c2ccccc2)CCN1CC1CC1 (stereo unspecified) | 16 µg/mL | 
CN1CN(CCCC2CCCCC2)Cc2c(O)ccc3oc(-c4ccc(O)cc4)c(c23)C1=O | > 64 µg/mL | 
CC(C)CN1Cc2c(O)ccc3oc(-c4ccc(O)cc4)c(c23)C(=O)N(C)C1 | 0.062 µg/mL | 
COc1ccc(-c2oc3ccc(O)c4c3c2C(=O)N(C)CN(CC2CCC2)C4)cc1 | 0.25 µg/mL | 
O=C1NCN(C2CCCC2)Cc2c(O)ccc3oc(-c4ccc(O)cc4)c1c23 | 0.5 µg/mL | 
CC1c2c(O)ccc3c2c(cn3-c2ccc(Br)cc2)CCN1CC1CCC1 (stereo unspecified) | 8 µg/mL | 
CC(=O)c1c(C)n(-c2ccc(Br)cc2)c2ccc(O)c(CN3CCCCC3)c12 | 0.125 µg/mL | 
O=C(O)Cc1ccccc1Nc1c(Cl)cccc1Cl [DICLOFENAC] |  | microsomal CLint at 0.1 µM [2]: 248 µL/min/mg
CN1CN(C2CCCCC2)Cc2c(O)ccc3oc(-c4ccc(O)cc4)c(c23)C1=O | 8 µg/mL | 
CN1CN(CC2CCC2)Cc2c(O)ccc3oc(-c4ccccc4)c(c23)C1=O | 0.5 µg/mL | 
COc1cccc(-c2oc3ccc(O)c4c3c2C(=O)N(C)CN(CC2CCC2)C4)c1 | 4 µg/mL | 
CN1CN(CC2CC2)Cc2c(O)ccc3oc(-c4ccc(O)cc4)c(c23)C1=O | 0.031 µg/mL | IC50 [3]: > 100 µM
CN1CN(CCC2CC2)Cc2c(O)ccc3oc(-c4ccc(O)cc4)c(c23)C1=O | 0.25 µg/mL | 
CC1c2c(O)ccc3c2c(cn3-c2ccccc2)CCN1CC1CCC1 (stereo unspecified) | 8 µg/mL | 
CN1CN(CC2CCCC2)Cc2c(O)ccc3oc(-c4ccc(O)cc4)c(c23)C1=O | 2 µg/mL | 
CN1CN(C2CCC2)Cc2c(O)ccc3oc(-c4ccc(O)cc4)c(c23)C1=O | 0.125 µg/mL | 
Oc1ccc2c3c(cn2-c2ccc(Br)cc2)CCN(C2CCC2)Cc13 | 16 µg/mL | 
CC1c2c(O)ccc3c2c(cn3-c2ccc(Br)cc2)CCN1CC1CC1 (stereo unspecified) | 8 µg/mL | 
CN1CN(CC2CCC2)Cc2c(O)ccc3oc(-c4cccc(O)c4)c(c23)C1=O | 0.125 µg/mL | 

Structure (SMILES) | MIC [1] | also measured
Oc1ccc2c3c(cn2-c2ccc(Br)cc2)CCN(CC2CCC2)Cc13 | 8 µg/mL | half-life at 0.1 µM [4]: 51.5 min; microsomal CLint at 0.1 µM [2]: 26.9 µL/min/mg; remaining at 1 h, 0.1 µM [5]: 44.1%
CN1CN(C2CCCC2)Cc2c(O)ccc3c2c(cn3-c2ccc(Br)cc2)C1=O | 1 µg/mL | 
CN1CN(CC2CCC2)Cc2c(O)ccc3oc(-c4ccc(F)cc4)c(c23)C1=O | 2 µg/mL | 
CN1CN(CC2CCCC2)Cc2c(O)ccc3c2c(cn3-c2ccc(Br)cc2)C1=O | > 64 µg/mL | 
COc1ccc2oc(-c3ccc(O)cc3)c3c2c1CN(CC1CCC1)CN(C)C3=O | 64 µg/mL | 
CC1c2c(O)ccc3c2c(cn3-c2ccc(Br)cc2)CCN1C1CCC1 (stereo unspecified) | 8 µg/mL | 
Oc1ccc2c3c(cn2-c2ccc(Br)cc2)CCN(CC2CC2)Cc13 | 16 µg/mL | 
CC1c2c(O)ccc3c2c(cn3-c2ccc(Br)cc2)C(=O)CN1CC1CCC1 (stereo unspecified) | > 64 µg/mL | 
CN1CN(CC2CCCCC2)Cc2c(O)ccc3oc(-c4ccc(O)cc4)c(c23)C1=O | 16 µg/mL | 
CC1c2c(O)ccc3c2c(cn3-c2ccc(Br)cc2)C(=O)CN1CC1CC1 (stereo unspecified) | 32 µg/mL | 
C[C@]12CC[C@H]3[C@@H](CCC4=CC(=O)CC[C@@]43C)[C@@H]1CC[C@@H]2O [TESTOSTERONE] |  | remaining at 1 h, 0.1 µM [5]: 4.1%
CN1CN(CC2CCC2)Cc2c(O)ccc3oc(-c4ccc(O)cc4)c(c23)C1=O | 0.016 µg/mL | half-life at 0.1 µM [4]: 17.7 min; IC50 [6]: 2.1 µM; microsomal CLint at 0.1 µM [2]: 78.2 µL/min/mg; Tm [7]: 65.8 °C; IC50 [3]: > 100 µM; ΔTm [8]: 6.8 °C; remaining at 1 h, 0.1 µM [5]: 8.2%
CNC(=O)c1c(-c2ccc(O)cc2)oc2ccc(O)c(CN3CCCCC3)c12 |  | Tm [7]: 67.4 °C; ΔTm [8]: 8.4 °C
CN1CN(CC2CCC2)Cc2c(O)ccc3c2c(cn3-c2ccc(Br)cc2)C1=O | 8 µg/mL | 
CC(C)CCN1Cc2c(O)ccc3oc(-c4ccc(O)cc4)c(c23)C(=O)N(C)C1 | 0.25 µg/mL | 
CC1c2c(O)ccc3c2c(cn3-c2ccccc2)CCN1C1CCC1 (stereo unspecified) | 16 µg/mL | 
CN1CN(CC2CC2)Cc2c(O)ccc3c2c(cn3-c2ccc(Br)cc2)C1=O | 8 µg/mL | 
CCOC(=O)c1c(NC(=O)c2c(F)c(F)c(F)c(F)c2F)sc2c1CCN(CC)C2 |  | MIC [9]: 0.23 µM
CC1c2c(O)ccc3c2c(cn3-c2ccc(Br)cc2)C(=O)CN1C1CCC1 (stereo unspecified) | 64 µg/mL | 
O=c1oc2cc(O)ccc2c2oc3ccc(O)c(CN4CCCCC4)c3c12 |  | IC50 [3]: 0.52 µM
CN1CN(C2CCCC2)Cc2c(O)ccc3oc(-c4ccc(O)cc4)c(c23)C1=O | 0.125 µg/mL | half-life at 0.1 µM [4]: 28.9 min; IC50 [6]: 5.87 µM; microsomal CLint at 0.1 µM [2]: 48 µL/min/mg; Tm [7]: 66 °C; IC50 [3]: > 100 µM; ΔTm [8]: 7 °C; remaining at 1 h, 0.1 µM [5]: 23.3%
